Consider 30 compounds from patent US12398120B2, “Substituted hydantoinamides as ADAMTS7 antagonists” (BAYER AKTIENGESELLSCHAFT, priority 2019, dated 2025).

Bounds are passed on as bounds.

ADAMTS4, sequence (O75173 213-685): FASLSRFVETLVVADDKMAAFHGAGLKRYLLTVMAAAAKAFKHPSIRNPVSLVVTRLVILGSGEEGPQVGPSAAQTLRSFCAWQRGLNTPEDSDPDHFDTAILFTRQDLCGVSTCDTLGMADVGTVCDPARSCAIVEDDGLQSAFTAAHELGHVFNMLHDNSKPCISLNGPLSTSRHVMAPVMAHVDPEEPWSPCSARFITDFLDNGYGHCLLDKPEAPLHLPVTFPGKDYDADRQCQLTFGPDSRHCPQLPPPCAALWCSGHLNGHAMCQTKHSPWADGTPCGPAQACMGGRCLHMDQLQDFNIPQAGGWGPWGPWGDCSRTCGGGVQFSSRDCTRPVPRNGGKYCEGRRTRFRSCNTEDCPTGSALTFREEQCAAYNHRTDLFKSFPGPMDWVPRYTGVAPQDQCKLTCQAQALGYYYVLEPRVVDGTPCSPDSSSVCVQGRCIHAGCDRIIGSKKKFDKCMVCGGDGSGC

The first assay addresses ADAMTS4 (Homo sapiens (Human), UniProt O75173). Nature of the assay: Selectivity assay for ADAMTS-7 modulators: ADAMTS4 (FRET substrate). Type of assay: biochemical. Particulars: ADAMTS4 (R&D 4307-AD) 50 nM, substrate Dabcyl-EEVKAKVQPY-Glu(Edans)-NH2 1 μM, 120 min, 32° C. In a few lines:
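Activity read as rising fluorescence after a FRET substrate is cleaved by human ADAMTS4, with reactions started by substrate addition to wells holding compound or DMSO. Percent inhibition plotted against concentration gave IC50.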
For `Cc1nsnc1C1(CNC(=O)c2ccccc2-c2ccc(C(F)(F)F)nc2)NC(=O)NC1=O` (stereo not drawn) [Example 91, Ent-N-{[4-(4-Methyl-1,2,5-Thiadiazol-3-Yl)-2,5-Dioxoimidazolidin-4-Yl]Methyl}-2-[6-(Trifluoromethyl)Pyridin-3-Yl]Benzamide], the IC50 (usually the concentration that inhibits the measured activity by half) turned out to be 30 µM. Same read-out and setting: with `Cc1nscc1C1(CNC(=O)c2ccccc2-c2ccc(C(F)(F)F)nc2)NC(=O)NC1=O` (stereo not drawn) [Example 64, Ent-N-{[4-(3-Methyl-1,2-Thiazol-4-Yl)-2,5-Dioxoimidazolidin-4-Yl]Methyl}-2-[6-(Trifluoromethyl)Pyridin-3-Yl]Benzamide] the figure was 12 µM. In the case of `O=C1NC(=O)[C@](CNC(=O)c2ccc(Cl)c(F)c2-c2ccc(C(F)(F)F)cc2)(C2CC2)N1` [Example 93, 5-Chloro-N-{[(4R)-4-Cyclopropyl-2,5-Dioxoimidazolidin-4-Yl]Methyl}-6-Fluoro-4′-(Trifluoromethyl)[1,1′-Biphenyl]-2-Carboxamide], the IC50 was determined as 3.4 µM. `CCC(C)C1(CNC(=O)c2ccccc2-c2ccc(C(F)(F)F)cc2)NC(=O)NC1=O` (stereo not drawn) [Example 38, Diamix-N-[(4-Sec-Butyl-2,5-Dioxoimidazolidin-4-Yl)Methyl]-4′-(Trifluoromethyl)[Biphenyl]-2-Carboxamide] yielded a half-maximal inhibitory concentration (IC50) of 21 µM. Same read-out and setting: with `CCC1(CNC(=O)c2ccccc2-c2ccc(C(F)(F)F)cc2)NC(=O)NC1=O` (racemic) [Example 81, Rac-N-[(4-Ethyl-2,5-Dioxoimidazolidin-4-Yl)Methyl]-4′-(Trifluoromethyl)[Biphenyl]-2-Carboxamide] the figure was above 50 µM; with `CCn1nccc1C1(CNC(=O)c2ccccc2-c2ccc(C(F)(F)F)cc2)NC(=O)NC1=O` (stereo not drawn) [Example 80, Ent-N-{[4-(1-Ethyl-1H-Pyrazol-5-Yl)-2,5-Dioxoimidazolidin-4-Yl]Methyl}-4′-(Trifluoromethyl)[Biphenyl]-2-Carboxamide], 5.73 µM. Same read-out and setting: with `Cc1ccc(C(=O)NC[C@@]2(C3CC3)NC(=O)NC2=O)c(-c2ccc(C3CC3(F)F)cc2)c1` (single isomer, unassigned) [Example 137] the figure was 13 µM.

Regarding `CCc1ccc(-c2cc(F)ccc2C(=O)NC[C@@]2(C3CC3)NC(=O)NC2=O)cc1` [Example 110, N-{[(4R)-4-Cyclopropyl-2,5-Dioxoimidazolidin-4-Yl]Methyl}-4′-Ethyl-5-Fluoro[Biphenyl]-2-Carboxamide], inhibition was half-maximal at 7.9 µM (IC50). Same read-out and setting: for `O=C1NC(=O)[C@](CNC(=O)c2ccncc2-c2ccc(Cl)cc2)(C2CC2)N1` [Example 56, 3-(4-Chlorophenyl)-N-{[(4R)-4-Cyclopropyl-2,5-Dioxoimidazolidin-4-Yl]Methyl}Isonicotinamide] the value was 31 µM; for `Cc1scnc1C1(CNC(=O)c2cc(F)ccc2-c2ccc(C(F)(F)F)cc2)NC(=O)NC1=O` (racemic) [Example 165, Rac-4-Fluoro-N-{[4-(5-Methyl-1,3-Thiazol-4-Yl)-2,5-Dioxoimidazolidin-4-Yl]Methyl}-4′-(Trifluoromethyl)[Biphenyl]-2-Carboxamide], 6.6 µM; for `Cc1nonc1C1(CNC(=O)c2ccccc2-c2ccc(C(F)(F)F)cc2)NC(=O)NC1=O` (stereo not drawn) [Example 73, Ent-N-{[4-(4-Methyl-1,2,5-Oxadiazol-3-Yl)-2,5-Dioxoimidazolidin-4-Yl]Methyl}-4′-(Trifluoromethyl)[Biphenyl]-2-Carboxamide], 20 µM. Same read-out and setting: for `O=C1NC(=O)C(CNC(=O)c2ccccc2-c2ccc(C(F)(F)F)nc2)(C2(Cl)CC2)N1` (racemic) [Example 281, Rac-N-{[4-(1-Chlorocyclopropyl)-2,5-Dioxoimidazolidin-4-Yl]Methyl}-2-[6-(Trifluoromethyl)Pyridin-3-Yl]Benzamide] the value was 26 µM. Same read-out and setting: with `O=C1NC(=O)C(CNC(=O)c2ccc(F)cc2-c2ccc(C(F)(F)F)cc2)(c2cscn2)N1` (racemic) [Example 198, Rac-N-{[2,5-Dioxo-4-(1,3-Thiazol-4-Yl)Imidazolidin-4-Yl]Methyl}-5-Fluoro-4′-(Trifluoromethyl)[Biphenyl]-2-Carboxamide] the figure was 39 µM; with `O=C1NC(=O)C(CNC(=O)c2ccccc2-c2ccc(C(F)(F)F)cc2)(c2ccnn2C2CC2)N1` (stereo not drawn) [Example 46, Ent-N-{[4-(1-Cyclopropyl-1H-Pyrazol-5-Yl)-2,5-Dioxoimidazolidin-4-Yl]Methyl}-4′-(Trifluoromethyl)[Biphenyl]-2-Carboxamide], 4.8 µM. For the compound `Cc1cc(C2(CNC(=O)c3ccc(F)c(F)c3-c3ccc(C(F)(F)F)cc3)NC(=O)NC2=O)nn1C` (racemic) [Example 305, Rac-N-{[4-(1,5-Dimethyl-1H-Pyrazol-3-Yl)-2,5-Dioxoimidazolidin-4-Yl]Methyl}-5,6-Difluoro-4′-(Trifluoromethyl)[Biphenyl]-2-Carboxamide], the IC50 amounted to 28 µM. Same read-out and setting: for `O=C1NC(=O)[C@](CNC(=O)c2cccc(F)c2-c2ccc(C(F)(F)F)cc2)(C2CC2)N1` [Example 235, N-{[(4R)-4-Cyclopropyl-2,5-Dioxoimidazolidin-4-Yl]Methyl}-6-Fluoro-4′-(Trifluoromethyl)[1,1′-Biphenyl]-2-Carboxamide] the value was 7.83 µM. The same measure, in the same setting: for `Cc1cccc(C(=O)NC[C@@]2(C3CC3)NC(=O)NC2=O)c1-c1ccc(C(F)(F)F)cc1` [Example 109, N-{[(4R)-4-Cyclopropyl-2,5-Dioxoimidazolidin-4-Yl]Methyl}-6-Methyl-4′-(Trifluoromethyl)[Biphenyl]-2-Carboxamide] the value was 8.7 µM. On the same count and under the same terms, with `O=C1NC(=O)C(CNC(=O)c2ccccc2-c2ccc(C(F)(F)F)cc2)(c2ccnn2CC(F)(F)F)N1` (stereo not drawn) [Example 28, Ent-N-({2,5-Dioxo-4-[1-(2,2,2-Trifluoroethyl)-1H-Pyrazol-5-Yl]Imidazolidin-4-Yl}Methyl)-4′-(Trifluoromethyl)[Biphenyl]-2-Carboxamide] the figure was 11 µM; with `O=C1NC(=O)C(CNC(=O)c2ccc(F)cc2-c2ccc(Cl)cc2)(c2ncccc2C(F)(F)F)N1` (racemic) [Example 241, Rac-4′-Chloro-N-({2,5-Dioxo-4-[3-(Trifluoromethyl)Pyridin-2-Yl]Imidazolidin-4-Yl}Methyl)-5-Fluoro[Biphenyl]-2-Carboxamide], 41 µM; with `Cc1ccc(-c2ccccc2C(=O)NCC2(C(C)C)NC(=O)NC2=O)cc1` (stereo not drawn) [Example 205, Ent-N-[(4-Isopropyl-2,5-Dioxoimidazolidin-4-Yl)Methyl]-4′-Methyl[Biphenyl]-2-Carboxamide], 12 µM.

`O=C1NC(=O)C(CNC(=O)c2ccc(F)cc2-c2ccc(C(F)(F)F)cc2)(c2ncccc2C(F)(F)F)N1` (racemic) [Example 240, Rac-N-({2,5-Dioxo-4-[3-(Trifluoromethyl)Pyridin-2-Yl]Imidazolidin-4-Yl}Methyl)-5-Fluoro-4′-(Trifluoromethyl)[Biphenyl]-2-Carboxamide] had a concentration for half-maximal inhibition (IC50) above 50 µM.

In the case of `Cc1nocc1C1(CNC(=O)c2ccccc2-c2ccc(C(F)(F)F)nc2)NC(=O)NC1=O` (stereo not drawn) [Example 65, Ent-N-{[4-(3-Methyl-1,2-Oxazol-4-Yl)-2,5-Dioxoimidazolidin-4-Yl]Methyl}-2-[6-(Trifluoromethyl)Pyridin-3-Yl]Benzamide], the IC50 amounted to 20 µM. In turn, `Cc1ccc(-c2cc(C)ccc2C(=O)NC[C@@]2(C3CC3)NC(=O)NC2=O)cc1` [Example 22, N-{[(4R)-4-Cyclopropyl-2,5-Dioxoimidazolidin-4-Yl]Methyl}-4′,5-Dimethyl[Biphenyl]-2-Carboxamide] displayed an IC50 of 3.9 µM. Same read-out and setting: with `Cc1scnc1C1(CNC(=O)c2ccccc2-c2ccc(Cl)cc2)NC(=O)NC1=O` (single isomer, unassigned; ent-4) [Example 172, Ent-4′-Chloro-N-{[4-(5-Methyl-1,3-Thiazol-4-Yl)-2,5-Dioxoimidazolidin-4-Yl]Methyl}[Biphenyl]-2-Carboxamide] the figure was 3.1 µM; with `Cc1cn(C)nc1C1(CNC(=O)c2ccccc2-c2ccc(C(F)(F)F)nc2)NC(=O)NC1=O` (stereo not drawn) [Example 72, Ent-N-{[4-(1,4-Dimethyl-1H-Pyrazol-3-Yl)-2,5-Dioxoimidazolidin-4-Yl]Methyl}-2-[6-(Trifluoromethyl)Pyridin-3-Yl]Benzamide], 6.9 µM; with `Cn1ccnc1C1(CNC(=O)c2ccccc2-c2ccc(Cl)cc2)NC(=O)NC1=O` (single isomer, unassigned; ent-4) [Example 155, Ent-4′-Chloro-N-{[4-(1-Methyl-1H-Imidazol-2-Yl)-2,5-Dioxoimidazolidin-4-Yl]Methyl}[Biphenyl]-2-Carboxamide], 5.9 µM.

The compound `Cn1nccc1C1(CNC(=O)c2ccc(Cl)cc2-c2ccc(C(F)(F)F)nc2)NC(=O)NC1=O` (single isomer, unassigned; ent-4) [Example 289, Ent-4-Chloro-N-{[4-(1-Methyl-1H-Pyrazol-5-Yl)-2,5-Dioxoimidazolidin-4-Yl]Methyl}-2-[6-(Trifluoromethyl)Pyridin-3-Yl]Benzamide] gave a half-maximal inhibitory concentration (IC50) of 6.3 µM. On the same count and under the same terms, for `O=C1NC(=O)[C@](CNC(=O)c2ccc(C(F)(F)F)cc2-c2ccc(C3CC3)cc2)(C2CC2)N1` [Example 108, 4′-Cyclopropyl-N-{[(4R)-4-Cyclopropyl-2,5-Dioxoimidazolidin-4-Yl]Methyl}-5-(Trifluoromethyl)[Biphenyl]-2-Carboxamide] the value was 19 µM; for `O=C1NC(=O)C(CNC(=O)c2ccccc2-c2ccc(C(F)(F)F)nc2)(c2ccnn2C2CC2)N1` (stereo not drawn) [Example 66, Ent-N-{[4-(1-Cyclopropyl-1H-Pyrazol-5-Yl)-2,5-Dioxoimidazolidin-4-Yl]Methyl}-2-[6-(Trifluoromethyl)Pyridin-3-Yl]Benzamide], 8.2 µM.

Staying with this assay, now noted: ADAMTS4 (R&D 4307-AD) 50 nM, substrate Dabcyl-[…]-Glu(Edans)-NH2 1 μM, 120 min, 32° C.
`O=C1NC(=O)C(CNC(=O)c2ccc(F)cc2-c2ccc(Cl)cc2)(C2(F)CC2)N1` (single isomer, unassigned; ent-4) [Example 301, Ent-4′-Chloro-5-Fluoro-N-{[4-(1-Fluorocyclopropyl)-2,5-Dioxoimidazolidin-4-Yl]Methyl}[Biphenyl]-2-Carboxamide] came in with a 50% inhibitory concentration (IC50) of 15 µM.
